SMILES strings stand for the structures.
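Further: ALL cell lines in 384-well plates, five doses spanning 10,000-fold, each plate scaled between vehicle and 100 µmol/L benzalkonium chloride controls, sDSS an adapted area-under-curve metric.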

The test system of one test is PEER. Briefly: selective drug sensitivity score (sDSS, relative to normal bone marrow) (sDSS (score)); higher = more potent and effective on the cell line relative to normal bone marrow cells. The note with it: 72 h.
For `Nc1ccccc1NC(=O)c1ccc(CNC(=O)OCc2cccnc2)cc1` [Entinostat] (top concentration 10000 nM), the “selective drug sensitivity score” value came to 6.88.

As for `C#Cc1cccc(Nc2ncnc3cc(OCCOC)c(OCCOC)cc23)c1` [Erlotinib] (top concentration 10000 nM), the “selective drug sensitivity score” value was 5.16.

For `O=C(Nc1nc2cccc(-c3ccc(CN4CCS(=O)(=O)CC4)cc3)n2n1)C1CC1` [Filgotinib] (top concentration 10000 nM), the “selective drug sensitivity score” value was -2.04.

Turning to `C[C@H]1C=C2C(=O)O[C@H]3CC[C@@H](C1)[C@@]23O` [Galiellalactone] (top concentration 25000 nM), the “selective drug sensitivity score” value stood at 1.66.

For `CN(C)C1CCN(C(=O)c2ccc(NC(=O)Nc3ccc(-c4nc(N5CCOCC5)nc(N5CCOCC5)n4)cc3)cc2)CC1` [Gedatolisib] (top concentration 1000 nM), the “selective drug sensitivity score” value came out at 4.06.

For the compound `Nc1ccn([C@@H]2O[C@H](CO)[C@@H](O)C2(F)F)c(=O)n1` [Gemcitabine] (top concentration 1000 nM), the “selective drug sensitivity score” value came to 5.06.

For `COc1cc2c(cc1-c1c(C)noc1C)ncc1[nH]c(=O)n([C@H](C)c3ccccn3)c12` [I-BET151] (top concentration 10000 nM), the “selective drug sensitivity score” value was 1.26.

Consider `O=C1CCc2c(Oc3ccc4c(c3)[C@@H]3[C@H](O4)[C@H]3c3nc4cc(C(F)(F)F)ccc4[nH]3)ccnc2N1` [Lifirafenib (BGB-283)] (top concentration 10000 nM), for which the “selective drug sensitivity score” value was 10.7.

As for `NC(=O)N1CCC(CC(=O)N2CCC([C@H]3c4ncc(Br)cc4CCc4cc(Cl)cc(Br)c43)CC2)CC1` [Lonafarnib] (top concentration 100000 nM), the “selective drug sensitivity score” value came out at 5.94.

For `NC1(c2ccc(-c3nc4ccn5c(=O)[nH]nc5c4cc3-c3ccccc3)cc2)CCC1` [MK-2206] (top concentration 1000 nM), the “selective drug sensitivity score” value was -1.64.

Turning to `O=C(Nc1cccc(NC(=O)c2cccc(O)c2O)c1)c1cccc(O)c1O` [MST-312] (top concentration 10000 nM), the “selective drug sensitivity score” value turned out to be 9.4.

For `CC(=O)O[C@]1(C(C)=O)CC[C@H]2[C@@H]3C=C(C)C4=CC(=O)CC[C@]4(C)[C@H]3CC[C@@]21C` [Megestrol_acetate] (top concentration 10000 nM), the “selective drug sensitivity score” value is 0.32.

In the case of `CO[C@@H]1[C@H](N(C)C(=O)c2ccccc2)C[C@H]2O[C@]1(C)n1c3ccccc3c3c4c(c5c6ccccc6n2c5c31)C(=O)NC4` [Midostaurin] (top concentration 10000 nM), the “selective drug sensitivity score” value was found to be 4.16.

Consider `CCCCCCCCCCCCCCCCOP(=O)([O-])OCC[N+](C)(C)C` [Miltefosine] (top concentration 100000 nM), for which the “selective drug sensitivity score” value worked out at 13.1.

In the case of `Nc1ccccc1NC(=O)c1ccc(CNc2nccc(-c3cccnc3)n2)cc1` [Mocetinostat] (top concentration 10000 nM), the “selective drug sensitivity score” value is 9.24.

Take `CCNC(=O)C[C@@H]1N=C(c2ccc(Cl)cc2)c2cc(OC)ccc2-n2c(C)nnc21` [Molibresib] (top concentration 10000 nM): the “selective drug sensitivity score” value is -3.

Take `Nc1ncnc2c1c(-c1cccc(OCc3ccccc3)c1)cn2[C@H]1C[C@@H](CN2CCC2)C1` [NVP-AEW541] (top concentration 10000 nM): the “selective drug sensitivity score” value was 0.38.

Regarding `CN[C@@H](C)C(=O)N[C@H](C(=O)N1CCC[C@H]1c1nc(C(=O)c2ccc(F)cc2)cs1)C1CCCCC1` [NVP-LCL161] (top concentration 25000 nM), the “selective drug sensitivity score” value is -2.72.

For another test, the system named is KASUMI-10. Described as above. The note with it: 72 h.
Consider `Nc1ccccc1NC(=O)c1ccc(CNC(=O)OCc2cccnc2)cc1` [Entinostat] (top concentration 10000 nM), for which the “selective drug sensitivity score” value was found to be 3.68.

Take `C#Cc1cccc(Nc2ncnc3cc(OCCOC)c(OCCOC)cc23)c1` [Erlotinib] (top concentration 10000 nM): the “selective drug sensitivity score” value is 4.06.

In the case of `O=C(Nc1nc2cccc(-c3ccc(CN4CCS(=O)(=O)CC4)cc3)n2n1)C1CC1` [Filgotinib] (top concentration 10000 nM), the “selective drug sensitivity score” value stood at 1.46.

`C[C@H]1C=C2C(=O)O[C@H]3CC[C@@H](C1)[C@@]23O` [Galiellalactone] (top concentration 25000 nM): the “selective drug sensitivity score” value amounted to 4.56.

Consider `CN(C)C1CCN(C(=O)c2ccc(NC(=O)Nc3ccc(-c4nc(N5CCOCC5)nc(N5CCOCC5)n4)cc3)cc2)CC1` [Gedatolisib] (top concentration 1000 nM), for which the “selective drug sensitivity score” value is 1.36.

Consider `Nc1ccn([C@@H]2O[C@H](CO)[C@@H](O)C2(F)F)c(=O)n1` [Gemcitabine] (top concentration 1000 nM), for which the “selective drug sensitivity score” value worked out at 16.8.

For `COc1cc2c(cc1-c1c(C)noc1C)ncc1[nH]c(=O)n([C@H](C)c3ccccn3)c12` [I-BET151] (top concentration 10000 nM), the “selective drug sensitivity score” value worked out at 5.66.

With `O=C1CCc2c(Oc3ccc4c(c3)[C@@H]3[C@H](O4)[C@H]3c3nc4cc(C(F)(F)F)ccc4[nH]3)ccnc2N1` [Lifirafenib (BGB-283)] (top concentration 10000 nM), the “selective drug sensitivity score” value was determined as 7.98.

For `NC(=O)N1CCC(CC(=O)N2CCC([C@H]3c4ncc(Br)cc4CCc4cc(Cl)cc(Br)c43)CC2)CC1` [Lonafarnib] (top concentration 100000 nM), the “selective drug sensitivity score” value was -1.56.

As for `NC1(c2ccc(-c3nc4ccn5c(=O)[nH]nc5c4cc3-c3ccccc3)cc2)CCC1` [MK-2206] (top concentration 1000 nM), the “selective drug sensitivity score” value was -0.44.

Turning to `O=C(Nc1cccc(NC(=O)c2cccc(O)c2O)c1)c1cccc(O)c1O` [MST-312] (top concentration 10000 nM), the “selective drug sensitivity score” value worked out at 1.

For the compound `CC(=O)O[C@]1(C(C)=O)CC[C@H]2[C@@H]3C=C(C)C4=CC(=O)CC[C@]4(C)[C@H]3CC[C@@]21C` [Megestrol_acetate] (top concentration 10000 nM), the “selective drug sensitivity score” value is -0.58.

Take `CO[C@@H]1[C@H](N(C)C(=O)c2ccccc2)C[C@H]2O[C@]1(C)n1c3ccccc3c3c4c(c5c6ccccc6n2c5c31)C(=O)NC4` [Midostaurin] (top concentration 10000 nM): the “selective drug sensitivity score” value was found to be 13.4.

As for `CCCCCCCCCCCCCCCCOP(=O)([O-])OCC[N+](C)(C)C` [Miltefosine] (top concentration 100000 nM), the “selective drug sensitivity score” value is -1.14.

Regarding `Nc1ccccc1NC(=O)c1ccc(CNc2nccc(-c3cccnc3)n2)cc1` [Mocetinostat] (top concentration 10000 nM), the “selective drug sensitivity score” value came to 6.74.

Consider `CCNC(=O)C[C@@H]1N=C(c2ccc(Cl)cc2)c2cc(OC)ccc2-n2c(C)nnc21` [Molibresib] (top concentration 10000 nM), for which the “selective drug sensitivity score” value came to 5.3.

On to `Nc1ncnc2c1c(-c1cccc(OCc3ccccc3)c1)cn2[C@H]1C[C@@H](CN2CCC2)C1` [NVP-AEW541] (top concentration 10000 nM), for which the “selective drug sensitivity score” value was determined as 3.58.

For the compound `CN[C@@H](C)C(=O)N[C@H](C(=O)N1CCC[C@H]1c1nc(C(=O)c2ccc(F)cc2)cs1)C1CCCCC1` [NVP-LCL161] (top concentration 25000 nM), the “selective drug sensitivity score” value is -3.52.

A further test has as its system 697. The description is as above. The note with it: 72 h.
Regarding `Nc1ccccc1NC(=O)c1ccc(CNC(=O)OCc2cccnc2)cc1` [Entinostat] (top concentration 10000 nM), the “selective drug sensitivity score” value was 8.28.

Take `C#Cc1cccc(Nc2ncnc3cc(OCCOC)c(OCCOC)cc23)c1` [Erlotinib] (top concentration 10000 nM): the “selective drug sensitivity score” value stood at 5.86.

For the compound `O=C(Nc1nc2cccc(-c3ccc(CN4CCS(=O)(=O)CC4)cc3)n2n1)C1CC1` [Filgotinib] (top concentration 10000 nM), the “selective drug sensitivity score” value worked out at 0.06.

As to `C[C@H]1C=C2C(=O)O[C@H]3CC[C@@H](C1)[C@@]23O` [Galiellalactone] (top concentration 25000 nM), the “selective drug sensitivity score” value was 3.26.

With `CN(C)C1CCN(C(=O)c2ccc(NC(=O)Nc3ccc(-c4nc(N5CCOCC5)nc(N5CCOCC5)n4)cc3)cc2)CC1` [Gedatolisib] (top concentration 1000 nM), the “selective drug sensitivity score” value turned out to be 11.3.

For `Nc1ccn([C@@H]2O[C@H](CO)[C@@H](O)C2(F)F)c(=O)n1` [Gemcitabine] (top concentration 1000 nM), the “selective drug sensitivity score” value amounted to 21.

As for `COc1cc2c(cc1-c1c(C)noc1C)ncc1[nH]c(=O)n([C@H](C)c3ccccn3)c12` [I-BET151] (top concentration 10000 nM), the “selective drug sensitivity score” value is 9.36.

`O=C1CCc2c(Oc3ccc4c(c3)[C@@H]3[C@H](O4)[C@H]3c3nc4cc(C(F)(F)F)ccc4[nH]3)ccnc2N1` [Lifirafenib (BGB-283)] (top concentration 10000 nM): the “selective drug sensitivity score” value stood at 6.68.

Take `NC(=O)N1CCC(CC(=O)N2CCC([C@H]3c4ncc(Br)cc4CCc4cc(Cl)cc(Br)c43)CC2)CC1` [Lonafarnib] (top concentration 100000 nM): the “selective drug sensitivity score” value came to 7.54.
